Experimental data taken from ChEMBL document CHEMBL5625251, “Anti-influenza virus activities and mechanism of antrafenine analogs” (Eur J Med Chem, 2023).
The source made the active and inactive calls. The rule behind the calls is not given here.

Key:
[1] = Cytotoxicity against MDCK cells assessed as reduction in cell viability incubated for 48 hrs by MTT assay; assay type: toxicity, cell-based, Canis lupus familiaris; settings: dog
Influenza A virus [2] = experiment: Antiviral activity against Influenza A virus A/WSN/33(H1N1) infected in MDCK cells assessed as inhibition of viral growth at 50 uM pre-infected for 1 hr followed by compound addition and measured 24 hrs post infection by plaque assay relative to control; assay type: functional; settings: time 23 hrs
MDCK = experiment: Cytotoxicity against MDCK cells assessed as reduction in cell viability at 12.5 uM incubated for 48 hrs by MTT assay; assay type: toxicity, cell-based, Canis lupus familiaris; settings: dog
Influenza A virus [3] = experiment: Antiviral activity against Influenza A virus A/WSN/33(H1N1) infected in MDCK cells assessed as inhibition of viral growth 12.5 uM pre-infected for 1 hr followed by compound addition and measured 24 hrs post infection by plaque assay relative to control; assay type: functional; settings: time 23 hrs
Influenza A virus [4] = experiment: Antiviral activity against Influenza A virus A/WSN/33(H1N1) infected in MDCK cells assessed as inhibition of viral growth at 100 uM pre-infected for 1 hr followed by compound addition and measured 24 hrs post infection by plaque assay relative to control; assay type: functional; settings: time 23 hrs
Influenza A virus [5] = experiment: Antiviral activity against Influenza A virus A/WSN/33(H1N1) infected in MDCK cells assessed as reduction in virus-induced cytopathic effect at 100 uM pre-infected with cells for 1 hrs followed by compound addition and measured after 2 days by MTT assay; assay type: functional, organism-based; settings: time 2.0 day
Influenza A virus [6] = experiment: Antiviral activity against Influenza A virus A/WSN/33(H1N1) infected in MDCK cells MOI 0.1 assessed as reduction in viral titre at 100 uM pre-infected with cells for 6 hrs followed by compound addition and measured after 2 hrs post infection by time of addition assay; assay type: functional, organism-based
Influenza A virus [7] = experiment: Antiviral activity against Influenza A virus A/WSN/33(H1N1) infected in chicken erythrocytes assessed as reduction in Haemagglutinin level preincubated for 30 mins followed by viral infection and measured after 40 mins; assay type: functional, organism-based; settings: Erythrocyte, time 70.0 min
[8] = Selectivity index, ratio of CC50 for cytotoxicity against MDCK cells assessed as reduction in cell viability to IC50 for antiviral activity against Influenza A virus A/PR/8/34 infected in MDCK cells MOI 0.01 assessed as inhibition of viral growth; assay type: toxicity, cell-based; settings: dog, read-out: Ratio CC50/IC50
Influenza A virus [9] = experiment: Antiviral activity against Influenza A virus A/WSN/33(H1N1) infected in chicken erythrocytes assessed as reduction in neuraminidase level incubated for 2 hrs; assay type: functional, organism-based; settings: Erythrocyte
Influenza A virus [10] = experiment: Antiviral activity against Influenza A virus A/PR/8/34 infected in MDCK cells MOI 0.01 assessed as inhibition of viral growth pre-infected for 1 hr followed by compound addition and measured 24 hrs post infection by plaque assay; assay type: functional, organism-based; settings: A/PR/8/34, MDCK
[11] = Selectivity index, ratio of CC50 for cytotoxicity against MDCK cells assessed as reduction in cell viability to IC50 for antiviral activity against Influenza A virus B/Florida/4/06 infected in MDCK cells MOI 0.01 assessed as inhibition of viral growth; assay type: toxicity, cell-based; settings: dog, read-out: Ratio CC50/IC50
Influenza A virus [12] = experiment: Antiviral activity against Influenza A virus A/WSN/33(H1N1) infected in MDCK cells MOI 0.1 assessed as reduction in viral titre at 100 uM pre-infected with cells for 6 hrs followed by compound addition and measured after 2 to 4 hrs post infection by time of addition assay; assay type: functional, organism-based
Influenza A virus [13] = experiment: Antiviral activity against Influenza A virus A/HK/1/68 infected in MDCK cells MOI 0.01 assessed as inhibition of viral growth pre-infected for 1 hr followed by compound addition and measured 24 hrs post infection by plaque assay; assay type: functional, organism-based; settings: A/HK/1/68, MDCK
[14] = Selectivity index, ratio of CC50 for cytotoxicity against African green monkey Vero cells assessed as reduction in cell viability to IC50 for inhibition of Influenza A virus A/WSN/33(H1N1) Ribonucleoprotein transfected in Vero cells; assay type: toxicity, cell-based; settings: read-out: Ratio CC50/IC50
Influenza A virus [15] = experiment: Antiviral activity against Influenza A virus A/WSN/33(H1N1) infected in MDCK cells assessed as inhibition of viral growth pre-infected for 1 hr followed by compound addition and measured 24 hrs post infection by plaque assay; assay type: functional, organism-based
[16] = target: Polymerase acidic protein (Influenza A virus (A/Puerto Rico/8/1934(H1N1)), UniProt P03433); experiment: Binding affinity to C-terminal Influenza A virus Polymerase acidic protein assessed as dissociation constant by MST assay
Influenza A virus [17] = experiment: Antiviral activity against Influenza A virus B/Florida/4/06 infected in MDCK cells MOI 0.01 assessed as inhibition of viral growth pre-infected for 1 hr followed by compound addition and measured 24 hrs post infection by plaque assay; assay type: functional, organism-based; settings: B/Florida/4/06, MDCK
[18] = Selectivity index, ratio of CC50 for cytotoxicity against MDCK cells assessed as reduction in cell viability to IC50 for antiviral activity against Influenza A virus A/HK/1/68 infected in MDCK cells MOI 0.01 assessed as inhibition of viral growth; assay type: toxicity, cell-based; settings: dog, read-out: Ratio CC50/IC50
[19] = Cytotoxicity against African green monkey Vero cells assessed as reduction in cell viability incubated for 48 hrs by MTT assay; assay type: toxicity, cell-based; settings: chlorocebus sabaeus
[20] = Inhibition of Influenza A virus A/WSN/33(H1N1) Ribonucleoprotein transfected in Vero cells incubated for 48 hrs by spectrophotometer analysis; assay type: cell-based
Influenza A virus [21] = experiment: Antiviral activity against Influenza A virus A/WSN/33(H1N1) infected in MDCK cells MOI 0.1 assessed as reduction in viral titre at 100 uM pre-infected with cells for 6 hrs followed by compound addition and measured after 4 to 6 hrs post infection by time of addition assay; assay type: functional, organism-based
Nucleoprotein = Nucleoprotein (Influenza A virus (strain A/Wilson-Smith/1933 H1N1), UniProt P15682); experiment: Binding affinity to Influenza A virus Nucleoprotein assessed as dissociation constant by MST assay
Influenza A virus [22] = experiment: Antiviral activity against Influenza A virus A/WSN/33(H1N1) infected in MDCK cells MOI 0.1 assessed as reduction in viral titre at 100 uM pre-infected with cells for 6 hrs followed by compound addition and measured after 6 to 8 hrs post infection by time of addition assay; assay type: functional, organism-based
[23] = Selectivity index, ratio of CC50 for cytotoxicity against MDCK cells assessed as reduction in cell viability to IC50 for antiviral activity against Influenza A virus A/WSN/33(H1N1) infected in MDCK cells assessed as inhibition of viral growth; assay type: toxicity, cell-based; settings: dog, read-out: Ratio CC50/IC50

Sequence of Nucleoprotein (P15682 whole entry): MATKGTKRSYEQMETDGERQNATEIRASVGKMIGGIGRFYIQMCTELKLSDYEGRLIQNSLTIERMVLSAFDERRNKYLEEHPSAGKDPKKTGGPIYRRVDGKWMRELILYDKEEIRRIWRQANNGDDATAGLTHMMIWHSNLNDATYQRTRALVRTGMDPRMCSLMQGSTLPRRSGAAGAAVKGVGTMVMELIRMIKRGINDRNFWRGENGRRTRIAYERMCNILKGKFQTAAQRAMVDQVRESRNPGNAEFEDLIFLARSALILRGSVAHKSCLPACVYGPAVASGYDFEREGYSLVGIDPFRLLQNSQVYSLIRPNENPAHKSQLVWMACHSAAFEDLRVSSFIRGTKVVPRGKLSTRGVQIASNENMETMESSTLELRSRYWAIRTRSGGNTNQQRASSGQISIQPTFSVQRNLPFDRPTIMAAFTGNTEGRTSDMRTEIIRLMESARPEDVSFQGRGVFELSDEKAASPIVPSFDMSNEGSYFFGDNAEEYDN

Q: For `O=C(OCCN1CCN(c2cccc(C(F)(F)F)c2)CC1)c1ccccc1Nc1ccnc2cc(C(F)(F)F)ccc12` [ANTRAFENINE], which CC50 at 48 h [1] is on record?
A: > 100 µM

Q: Which inhibition at 50 µM (Influenza A virus [2]) does the source give for `O=C(CNC(=O)c1ccccc1Nc1ccnc2cc(C(F)(F)F)ccc12)NC1CCCCC1` here?
A: 69.3%

Q: And the CC50 at 48 h [1]?
A: > 100 µM

Q: With `Cc1ccccc1N1CCN(CCNC(=O)c2ccccc2Nc2ccnc3ccc(Cl)cc23)CC1` as the compound, how does the Activity (MDCK) read?
A: Toxic

Q: Which results are given for `O=C(NCCN1CCN(c2ccccc2OC(F)(F)F)CC1)c1ccccc1Nc1ccnc2ccc(Cl)cc12`?
A: inhibition at 50 µM (Influenza A virus [2]): 50%; CC50 at 48 h [1]: > 100 µM

Q: With `CC(C)NC(=O)c1ccccc1Nc1ccnc2cc(C(F)(F)F)ccc12` as the compound, how does the CC50 at 48 h [1] read?
A: > 100 µM

Q: With `O=C(CNC(=O)c1ccccc1Nc1ccnc2ccc(Cl)cc12)NC1CCCCC1` as the compound, how does the CC50 at 48 h [1] read?
A: 21.6 µM

Q: What about the inhibition at 12.5 µM (Influenza A virus [3]) of the same compound?
A: 44.4%

Q: With `O=C(CNC(=O)c1ccccc1Nc1ccnc2cc(C(F)(F)F)ccc12)NCCCN1CCOCC1` as the compound, how does the inhibition at 50 µM (Influenza A virus [2]) read?
A: 94.9%

Q: What about the CC50 at 48 h [1] of the same compound?
A: > 50 µM

Q: For `O=C(Nc1ccccc1)c1ccccc1Nc1ccnc2cc(C(F)(F)F)ccc12`, which CC50 at 48 h [1] is on record?
A: > 100 µM

Q: What does the source list for `O=C(NCCCO)c1ccccc1Nc1ccnc2cc(C(F)(F)F)ccc12`?
A: CC50 at 48 h [1]: > 100 µM; inhibition at 100 µM (Influenza A virus [4]): 62.6%

Q: For `O=C(CNC(=O)c1ccccc1Nc1ccnc2ccc(Cl)cc12)NCc1ccccc1`, which Activity (Influenza A virus [5]) is on record?
A: Active

Q: What about the CC50 at 48 h [1] of the same compound?
A: > 100 µM

Q: For `O=C(NCc1ccccc1)c1ccccc1Nc1ccnc2ccc(Cl)cc12`, which CC50 at 48 h [1] is on record?
A: 45.3 µM

Q: With `O=C(NC1CCCCC1)c1ccccc1Nc1ccnc2cc(C(F)(F)F)ccc12` as the compound, how does the CC50 at 48 h [1] read?
A: > 50 µM

Q: What about the inhibition at 12.5 µM (Influenza A virus [3]) of the same compound?
A: 41.3%

Q: For `Cc1ccccc1N1CCN(C(=O)CNC(=O)c2ccccc2Nc2ccnc3ccc(Cl)cc23)CC1`, which CC50 at 48 h [1] is on record?
A: > 100 µM

Q: What about the inhibition at 12.5 µM (Influenza A virus [3]) of the same compound?
A: 55.8%

Q: Which Activity (Influenza A virus [6]) does the source give for `O=C(O)c1ccccc1Nc1ccnc2cc(C(F)(F)F)ccc12` here?
A: Active

Q: And the Activity (Influenza A virus [7])?
A: inactive

Q: And the selectivity ratio [8]?
A: > 9

Q: And the Activity (Influenza A virus [5])?
A: Active

Q: What about the Activity (Influenza A virus [9]) of the same compound?
A: inactive

Q: And the IC50 (Influenza A virus [10])?
A: 11.3 µM

Q: What about the selectivity ratio [11] of the same compound?
A: > 4

Q: And the Activity (Influenza A virus [12])?
A: Active

Q: What about the IC50 (Influenza A virus [13]) of the same compound?
A: 27.8 µM

Q: And the selectivity ratio [14]?
A: > 10

Q: And the IC50 (Influenza A virus [15])?
A: 6.73 µM

Q: And the CC50 at 48 h [1]?
A: > 100 µM

Q: And the Kd [16]?
A: 8.36 µM

Q: What about the IC50 (Influenza A virus [17]) of the same compound?
A: 22.3 µM

Q: What about the selectivity ratio [18] of the same compound?
A: > 4

Q: And the CC50 at 48 h [19]?
A: > 200 µM

Q: What about the IC50 [20] of the same compound?
A: 19.2 µM

Q: And the inhibition at 100 µM (Influenza A virus [4])?
A: 97.3%

Q: What about the Activity (Influenza A virus [21]) of the same compound?
A: Active

Q: And the Kd (Nucleoprotein)?
A: 20.4 µM

Q: What about the Activity (Influenza A virus [22]) of the same compound?
A: inactive

Q: What about the selectivity ratio [23] of the same compound?
A: > 15

Q: For `O=C(NC12CC3CC(CC(C3)C1)C2)c1ccccc1Nc1ccnc2ccc(Cl)cc12`, which Activity (MDCK) is on record?
A: Toxic

Q: Which results are given for `O=C(NCCCO)c1ccccc1Nc1ccnc2ccc(Cl)cc12`?
A: CC50 at 48 h [1]: > 100 µM; inhibition at 100 µM (Influenza A virus [4]): 69.5%

Q: Which results are given for `O=C(NCC(=O)N1CCOCC1)c1ccccc1Nc1ccnc2cc(C(F)(F)F)ccc12`?
A: CC50 at 48 h [1]: > 100 µM; inhibition at 100 µM (Influenza A virus [4]): 60.6%

Q: For `O=C(NCC(=O)N1CCOCC1)c1ccccc1Nc1ccnc2ccc(Cl)cc12`, which CC50 at 48 h [1] is on record?
A: > 100 µM

Q: And the inhibition at 100 µM (Influenza A virus [4])?
A: 65.4%

Q: With `O=C(NC12CC3CC(CC(C3)C1)C2)c1ccccc1Nc1ccnc2cc(C(F)(F)F)ccc12` as the compound, how does the Activity (MDCK) read?
A: Toxic

Q: For `Cc1ccc(N2CCN(CCNC(=O)c3ccccc3Nc3ccnc4cc(C(F)(F)F)ccc34)CC2)c(C)c1`, which CC50 at 48 h [1] is on record?
A: > 100 µM

Q: Which Activity (MDCK) does the source give for `O=C(NCCN1CCN(c2ccccc2Cl)CC1)c1ccccc1Nc1ccnc2ccc(Cl)cc12` here?
A: Toxic
